This note sets out measurements from article PMC2694132 (Cancer research, 2009).

Common to all, as to type: in vitro ADME
One data set addresses T1, UGT1A10 (Homo sapiens, UniProt Q9HAW8).
T1 sequence (Q9HAW8 26-530): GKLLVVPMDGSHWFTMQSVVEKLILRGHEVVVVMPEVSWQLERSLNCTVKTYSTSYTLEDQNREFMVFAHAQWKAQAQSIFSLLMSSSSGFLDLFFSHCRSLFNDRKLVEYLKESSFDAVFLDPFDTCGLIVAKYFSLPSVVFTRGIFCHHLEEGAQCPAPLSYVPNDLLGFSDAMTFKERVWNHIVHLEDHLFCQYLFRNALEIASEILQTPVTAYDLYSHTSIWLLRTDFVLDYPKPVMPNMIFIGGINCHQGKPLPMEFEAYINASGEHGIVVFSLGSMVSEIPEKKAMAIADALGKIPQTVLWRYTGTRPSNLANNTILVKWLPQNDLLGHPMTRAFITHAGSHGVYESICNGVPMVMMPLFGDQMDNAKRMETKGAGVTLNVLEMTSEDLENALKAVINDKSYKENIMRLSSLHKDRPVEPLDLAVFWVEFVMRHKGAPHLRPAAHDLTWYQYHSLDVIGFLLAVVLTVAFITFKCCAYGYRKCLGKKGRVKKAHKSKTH
Nature of the data set: SAHA glucuronidation, wild-type UGT1A10.

Data set [1] has as its target T2, UGT1A7*2 [UGT1A7p.(Asn129Lys)+(Arg131Lys)] (Homo sapiens, UniProt Q9HAW7, N129K/R131K).
T2 sequence (Q9HAW7 26-530 N129K/R131K): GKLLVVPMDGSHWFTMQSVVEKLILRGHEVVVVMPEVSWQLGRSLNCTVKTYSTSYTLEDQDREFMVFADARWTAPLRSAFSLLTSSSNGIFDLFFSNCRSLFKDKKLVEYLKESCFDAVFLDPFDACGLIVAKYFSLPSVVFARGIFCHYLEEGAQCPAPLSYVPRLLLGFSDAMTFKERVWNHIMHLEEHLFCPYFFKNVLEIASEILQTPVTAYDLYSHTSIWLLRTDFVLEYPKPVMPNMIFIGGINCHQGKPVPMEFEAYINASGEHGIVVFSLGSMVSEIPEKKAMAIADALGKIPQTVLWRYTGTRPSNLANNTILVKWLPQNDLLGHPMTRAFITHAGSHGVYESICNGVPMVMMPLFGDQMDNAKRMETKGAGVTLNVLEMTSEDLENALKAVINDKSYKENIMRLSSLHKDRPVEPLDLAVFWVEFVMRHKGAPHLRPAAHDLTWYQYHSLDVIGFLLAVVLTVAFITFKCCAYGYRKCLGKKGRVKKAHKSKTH
Nature of the data set: SAHA glucuronidation, UGT1A7*2 variant cell homogenate.

A further data set deals with T3, UGT1A1 (Homo sapiens, UniProt P22309).
T3 sequence (P22309 26-533): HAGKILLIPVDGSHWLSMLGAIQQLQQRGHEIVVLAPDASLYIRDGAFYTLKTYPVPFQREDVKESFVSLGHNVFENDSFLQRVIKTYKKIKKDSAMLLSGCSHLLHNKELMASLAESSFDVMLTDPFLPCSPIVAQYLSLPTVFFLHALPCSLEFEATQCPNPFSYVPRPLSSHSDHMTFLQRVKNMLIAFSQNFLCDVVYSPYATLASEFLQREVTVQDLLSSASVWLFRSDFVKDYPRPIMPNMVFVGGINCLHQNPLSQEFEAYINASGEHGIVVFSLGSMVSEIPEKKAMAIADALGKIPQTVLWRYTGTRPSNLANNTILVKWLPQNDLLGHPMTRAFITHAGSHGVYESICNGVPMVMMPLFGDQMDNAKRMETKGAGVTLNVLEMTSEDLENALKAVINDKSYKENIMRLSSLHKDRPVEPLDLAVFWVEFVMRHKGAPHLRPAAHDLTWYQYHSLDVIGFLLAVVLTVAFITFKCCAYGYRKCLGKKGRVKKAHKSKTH
In words: SAHA glucuronidation screen, UGT1A1-overexpressing cell homogenate.

The target in another data set is T4, UGT1A6 (Homo sapiens, UniProt P19224).
T4 sequence (P19224 27-532): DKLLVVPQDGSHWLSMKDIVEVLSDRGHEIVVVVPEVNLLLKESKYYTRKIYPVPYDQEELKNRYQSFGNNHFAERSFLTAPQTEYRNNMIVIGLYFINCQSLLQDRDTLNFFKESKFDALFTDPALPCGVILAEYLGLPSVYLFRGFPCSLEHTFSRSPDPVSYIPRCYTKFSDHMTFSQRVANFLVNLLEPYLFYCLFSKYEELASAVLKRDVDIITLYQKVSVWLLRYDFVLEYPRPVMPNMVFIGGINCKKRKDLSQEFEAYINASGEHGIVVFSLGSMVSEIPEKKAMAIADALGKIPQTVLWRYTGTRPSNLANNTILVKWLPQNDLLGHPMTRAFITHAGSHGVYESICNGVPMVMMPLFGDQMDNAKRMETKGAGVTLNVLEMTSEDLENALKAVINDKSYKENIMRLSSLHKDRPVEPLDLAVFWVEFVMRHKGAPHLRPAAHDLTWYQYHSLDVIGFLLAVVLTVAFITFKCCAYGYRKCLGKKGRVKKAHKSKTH
Nature of the data set: SAHA glucuronidation screen, UGT1A6-overexpressing cell homogenate.

For another data set, the target named is T5, UGT2B7 (Homo sapiens, UniProt P16662).
T5 sequence (P16662 24-529): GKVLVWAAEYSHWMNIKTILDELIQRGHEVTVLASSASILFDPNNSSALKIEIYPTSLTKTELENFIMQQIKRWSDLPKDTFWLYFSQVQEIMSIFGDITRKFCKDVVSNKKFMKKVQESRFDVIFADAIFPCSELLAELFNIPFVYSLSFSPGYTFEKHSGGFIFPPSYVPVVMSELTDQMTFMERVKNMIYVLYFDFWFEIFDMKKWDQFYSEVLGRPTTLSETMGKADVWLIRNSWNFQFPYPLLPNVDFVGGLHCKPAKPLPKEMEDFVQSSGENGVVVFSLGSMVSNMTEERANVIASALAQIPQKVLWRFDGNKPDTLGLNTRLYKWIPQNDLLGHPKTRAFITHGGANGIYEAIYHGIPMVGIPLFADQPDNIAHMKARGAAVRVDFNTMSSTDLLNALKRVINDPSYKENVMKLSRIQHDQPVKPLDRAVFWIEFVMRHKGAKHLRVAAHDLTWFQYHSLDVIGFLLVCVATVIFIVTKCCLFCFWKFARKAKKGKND
In words: SAHA glucuronidation screen, UGT2B7-overexpressing cell homogenate.

A short description of data set [2]: SAHA glucuronidation in human colon homogenate. The note with it: 200 μg protein.
[3] abbreviates: 400 μg UGT-overexpressing cell homogenate, 1-h incubation.

By Km is commonly meant the concentration of substrate that gives half-maximal velocity. On to `O=C(CCCCCCC(=O)Nc1ccccc1)NO` [SAHA, Suberoylanilide hydroxamic acid], for which, at UGT1A10 (setting [3]), the “glucuronidation against SAHA (screen)” value is “high levels of glucuronidation”. In addition, the “KM of UGT1A10 higher than that observed for UGT2B17” value at UGT1A10 (against SAHA) is 3 fold. For the same compound, the Michaelis constant (Km) at 1 h on UGT1A10 (human, pH 7.5) is 1000 ± 100 µM; in data set [1] (human, pH 7.5), 2500 ± 300 µM; on UGT1A1 (human, UGT1A1-overexpressing cell homogenate, pH 7.5), greater than 8000 µM; at UGT1A6 (human, UGT1A6-overexpressing cell homogenate, pH 7.5), greater than 8000 µM; at UGT2B7 (human, UGT2B7-overexpressing cell homogenate, pH 7.5) it was greater than 8000 µM. For the same compound, the “difference in glucuronidation activity against SAHA versus wild-type UGT1A7” value in data set [1] (UGT1A7 variants) is reported as “No significant difference”. The “glucuronidation against SAHA” value was “detectable levels of glucuronidation” on UGT1A1 (in vitro, UGT-overexpressing cell homogenate); “detectable levels of glucuronidation” at UGT1A6 (setting [3]); “detectable levels of glucuronidation” at UGT2B7 (setting [3]). Also, in data set [2], the “glucuronidation activity against SAHA” value is reported as “significant levels of glucuronidation activity”.
